Measurements: the CheMixHub viscosity set

Assay: xn = mol fraction of the nth substance listed

CC(C)[C@@H]1CC[C@@H](C)C[C@H]1O + CCCCO
Conditions | viscosity [mPa·s]
298.15 K, 101.33 kPa, x1 = 0.5 | 18.77

CCCCCCCCCCO + CCCCO
viscosity [mPa·s]
Conditions | 293.15 K | 298.15 K | 308.15 K | 318.15 K
101 kPa, x2 = 0.05 | – | 10.62 | 7.143 | 5.139
101 kPa, x2 = 0.1 | – | 10.2 | 6.798 | 4.922
101 kPa, x2 = 0.15 | – | 9.731 | 6.473 | 4.71
101 kPa, x2 = 0.2 | – | 9.226 | 6.163 | 4.501
101 kPa, x2 = 0.25 | – | 8.701 | 5.866 | 4.294
101 kPa, x2 = 0.3 | – | 8.167 | 5.576 | 4.088
101 kPa, x2 = 0.35 | – | 7.635 | 5.292 | 3.883
101 kPa, x2 = 0.4 | – | 7.113 | 5.012 | 3.678
101 kPa, x2 = 0.45 | – | 6.609 | 4.734 | 3.475
101 kPa, x2 = 0.5 | – | 6.127 | 4.456 | 3.272
101 kPa, x2 = 0.55 | – | 5.671 | 4.179 | 3.07
101 kPa, x2 = 0.6 | – | 5.243 | 3.903 | 2.872
101 kPa, x2 = 0.65 | – | 4.843 | 3.629 | 2.676
101 kPa, x2 = 0.7 | – | 4.47 | 3.358 | 2.485
101 kPa, x2 = 0.75 | – | 4.12 | 3.093 | 2.301
101 kPa, x2 = 0.8 | – | 3.788 | 2.837 | 2.124
101 kPa, x2 = 0.85 | – | 3.468 | 2.592 | 1.958
101 kPa, x2 = 0.9 | – | 3.152 | 2.364 | 1.804
101 kPa, x2 = 0.95 | – | 2.828 | 2.157 | 1.665
101.33 kPa, x2 = 0.1748 | 11.91 | – | – | –
101.33 kPa, x2 = 0.1793 | – | 9.791 | – | –
101.33 kPa, x2 = 0.2939 | 10.27 | – | – | –
101.33 kPa, x2 = 0.4002 | – | 7.559 | – | –
101.33 kPa, x2 = 0.491 | 7.756 | – | – | –
101.33 kPa, x2 = 0.5389 | – | 6.102 | – | –
101.33 kPa, x2 = 0.6325 | 6.156 | – | – | –
101.33 kPa, x2 = 0.7242 | – | 4.498 | – | –
101.33 kPa, x2 = 0.7787 | 4.69 | – | – | –
101.33 kPa, x2 = 0.836 | – | 3.659 | – | –
101.33 kPa, x2 = 0.8851 | 3.806 | – | – | –
101.33 kPa, x2 = 0.9219 | – | 3.077 | – | –

Cc1ccccc1C + CCCCO
308.15 K, 101 kPa
Conditions | viscosity [mPa·s]
x2 = 0.0515 | 0.62
x2 = 0.1019 | 0.659
x2 = 0.1872 | 0.672
x2 = 0.3031 | 0.687
x2 = 0.4127 | 0.752
x2 = 0.5164 | 0.808
x2 = 0.6146 | 0.912
x2 = 0.7079 | 1.021
x2 = 0.7965 | 1.135
x2 = 0.8809 | 1.326
x2 = 0.9612 | 1.564

CCC#N + CCCCOC(C)=O
303.15 K, 101.33 kPa
Conditions | viscosity [mPa·s]
x1 = 0.11 | 0.6161
x1 = 0.2014 | 0.5958
x1 = 0.2942 | 0.5799
x1 = 0.4034 | 0.5557
x1 = 0.5034 | 0.5332
x1 = 0.594 | 0.5076
x1 = 0.7008 | 0.4785
x1 = 0.798 | 0.4496
x1 = 0.8966 | 0.419

CC(C)[C@@H]1CC[C@@H](C)C[C@H]1O + CCCO
Conditions | viscosity [mPa·s]
298.15 K, 101.33 kPa, x1 = 0.5 | 28.39

CCCCCCCCCCO + CCCO
viscosity [mPa·s], 101 kPa
Conditions | 298.15 K | 308.15 K | 318.15 K
x2 = 0.05 | 10.52 | 7.206 | 5.14
x2 = 0.1 | 10.05 | 6.914 | 4.927
x2 = 0.15 | 9.562 | 6.633 | 4.716
x2 = 0.2 | 9.064 | 6.36 | 4.508
x2 = 0.25 | 8.557 | 6.093 | 4.306
x2 = 0.3 | 8.046 | 5.831 | 4.109
x2 = 0.35 | 7.534 | 5.572 | 3.921
x2 = 0.4 | 7.023 | 5.314 | 3.741
x2 = 0.45 | 6.517 | 5.058 | 3.572
x2 = 0.5 | 6.018 | 4.802 | 3.416
x2 = 0.55 | 5.529 | 4.547 | 3.275
x2 = 0.6 | 5.052 | 4.293 | 3.15
x2 = 0.65 | 4.589 | 4.04 | 3.044
x2 = 0.7 | 4.142 | 3.79 | 2.96
x2 = 0.75 | 3.712 | 3.543 | 2.9
x2 = 0.8 | 3.303 | 3.301 | 2.866
x2 = 0.85 | 2.915 | 3.065 | 2.862
x2 = 0.9 | 2.549 | 2.839 | 2.89
x2 = 0.95 | 2.207 | 2.624 | 2.953

COCCOCCO + CCCO
viscosity [mPa·s], 101 kPa
Conditions | 298.15 K | 308.15 K | 318.15 K
x1 = 0.0105 | 1.951 | 1.522 | 1.248
x1 = 0.0278 | 1.961 | 1.547 | 1.25
x1 = 0.0448 | 1.966 | 1.559 | 1.259
x1 = 0.0797 | 1.979 | 1.566 | 1.275
x1 = 0.0978 | 1.998 | 1.566 | 1.28
x1 = 0.1316 | 2.02 | 1.581 | 1.296
x1 = 0.1852 | 2.069 | 1.613 | 1.326
x1 = 0.2267 | 2.104 | 1.648 | 1.369
x1 = 0.2853 | 2.158 | 1.693 | 1.399
x1 = 0.3029 | 2.172 | 1.713 | 1.415
x1 = 0.3226 | 2.2 | 1.724 | 1.43
x1 = 0.3872 | 2.284 | 1.79 | 1.486
x1 = 0.439 | 2.354 | 1.84 | 1.532
x1 = 0.4811 | 2.416 | 1.888 | 1.573
x1 = 0.5266 | 2.42 | 1.94 | 1.618
x1 = 0.5519 | 2.528 | 1.969 | 1.643
x1 = 0.6051 | 2.624 | 2.037 | 1.694
x1 = 0.6805 | 2.748 | 2.138 | 1.778
x1 = 0.7239 | 2.835 | 2.193 | 1.832
x1 = 0.7925 | 2.967 | 2.29 | 1.917
x1 = 0.8237 | 3.034 | 2.338 | 1.947
x1 = 0.8896 | 3.163 | 2.439 | 2.027
x1 = 0.9096 | 3.207 | 2.464 | 2.051
x1 = 0.9417 | 3.265 | 2.509 | 2.086
x2 = 0.0151 | 3.393 | 2.614 | 2.14

Cc1ccccc1C + CCCO
viscosity [mPa·s], 100 kPa
Conditions | 298.15 K | 308.15 K
x2 = 0.063 | 0.7471 | 0.6664
x2 = 0.123 | 0.7703 | 0.6751
x2 = 0.2215 | 0.784 | 0.6782
x2 = 0.3496 | 0.8508 | 0.7537
x2 = 0.4648 | 0.9239 | 0.806
x2 = 0.5689 | 1.017 | 0.8647
x2 = 0.6634 | 1.124 | 0.9367
x2 = 0.7497 | 1.264 | 1.029
x2 = 0.8287 | 1.454 | 1.155
x2 = 0.9014 | 1.626 | 1.275
x2 = 0.9684 | 1.836 | 1.49

NC(N)=O + CCCO
viscosity [mPa·s], 101 kPa
Conditions | 298.15 K | 303.15 K | 308.15 K | 313.15 K | 318.15 K
x1 = 0.025 | 2.16 | 1.896 | 1.691 | 1.502 | 1.339
x1 = 0.0385 | 2.24 | 2.003 | 1.768 | 1.568 | 1.401

CCCCCC(=O)[O-].[NH3+]CCO + CCO
viscosity [mPa·s], 101 kPa
Conditions | x1 = 0.0135 | x2 = 0.794 | x2 = 0.8544 | x2 = 0.9 | x2 = 0.9391 | x2 = 0.9563 | x2 = 0.9719
293.15 K | 1.548 | 13.46 | 7.158 | 4.35 | 2.76 | 2.28 | 1.86
298.15 K | 1.428 | 11.38 | 6.24 | 3.87 | 2.472 | 2.046 | 1.74
303.15 K | 1.29 | 9.792 | 5.43 | 3.39 | 2.22 | 1.848 | 1.512

CCCCCCCCCCO + CCO
viscosity [mPa·s], 101 kPa
Conditions | 298.15 K | 308.15 K | 318.15 K
x2 = 0.05 | 10.42 | 7.3 | 4.847
x2 = 0.1 | 9.841 | 7.003 | 4.436
x2 = 0.15 | 9.249 | 6.644 | 4.102
x2 = 0.2 | 8.648 | 6.24 | 3.83
x2 = 0.25 | 8.044 | 5.809 | 3.604
x2 = 0.3 | 7.442 | 5.364 | 3.409
x2 = 0.35 | 6.845 | 4.919 | 3.236
x2 = 0.4 | 6.259 | 4.484 | 3.073
x2 = 0.45 | 5.687 | 4.065 | 2.912
x2 = 0.5 | 5.133 | 3.671 | 2.747
x2 = 0.55 | 4.6 | 3.304 | 2.575
x2 = 0.6 | 4.09 | 2.967 | 2.391
x2 = 0.65 | 3.606 | 2.659 | 2.195
x2 = 0.7 | 3.15 | 2.378 | 1.989
x2 = 0.75 | 2.723 | 2.119 | 1.775
x2 = 0.8 | 2.326 | 1.876 | 1.558
x2 = 0.85 | 1.961 | 1.641 | 1.344
x2 = 0.9 | 1.627 | 1.402 | 1.141
x2 = 0.95 | 1.325 | 1.146 | 0.9601

NC(N)=O + CCO
viscosity [mPa·s], 101 kPa
Conditions | 293.15 K | 298.15 K | 303.15 K | 308.15 K | 313.15 K | 318.15 K | 323.15 K
x1 = 0.02956 | 1.328 | 1.204 | 1.095 | 0.999 | 0.914 | 0.839 | 0.772
x1 = 0.03764 | 1.386 | 1.251 | 1.134 | 1.031 | 0.94 | 0.859 | 0.788
x1 = 0.04782 | 1.476 | 1.329 | 1.202 | 1.09 | 0.991 | 0.904 | 0.828
